Among the data in ChEMBL document CHEMBL6078684, “Discovery of a Novel Non-invasive AR PROTAC Degrader for the Topical Treatment of Androgenetic Alopecia” (J Med Chem, 2024) are Drug uptake, DC50 and Activity values, retold here.

A short description of series [1]: Drug uptake in male Sprague-Dawley rat Dorsal skin assessed as retention rat at 1 mg/ml, TOP measured after 30 mins by LC-MS/MS analysis. It is filed as ADME, tissue-based, Zone of skin. The settings on record: in vivo, topical_or_ocular, 0.5 h.
Series [2] deals with Protein cereblon/Androgen receptor (Homo sapiens, UniProt P10275+Q96SW2). Nature of the series: PROTAC activity at CRBN/AR in human dermal papilla cell assessed as induction of AR degradation measured after 24 to 72 hrs by Western blot analysis. It is filed as cell-based. (A western blot detects proteins with antibodies after separation by electrophoresis.)
Series [3] has as its system Human dermal papilla cell. Put plainly: Downregulation of AR protein expression in human dermal papilla cells at 1 uM preincubated with testosterone for 24 hrs followed by compound addition and measured after 48 hrs by Western blot analysis. It counts as functional, cell-based.
Series [4] deals with Human dermal papilla cell. Nature of the series: Upregulation of beta-catenin level in human dermal papilla cells at 1 uM preincubated with testosterone for 24 hrs followed by compound addition and measured after 48 hrs by Western blot analysis. It is filed as functional, cell-based.
Series [5] has as its system Human dermal papilla cell. Nature of the series: Downregulation of TGF-beta1 expression level in human dermal papilla cells at 1 uM preincubated with testosterone for 24 hrs followed by compound addition and measured after 48 hrs by Western blot analysis. It is filed as functional, cell-based.
Series [6] can be described thus: Inhibition of TGF-beta1 release in human dermal papilla cells assessed as TGF-beta1 concentration at 1 uM preincubated with testosterone for 24 hrs followed by compound addition and measured after 48 hrs by ELISA. It counts as functional, Human dermal papilla cell. (In an ELISA, binding on a coated surface is turned into a signal by an enzyme label.)
Series [7] relates to Mus musculus. Nature of the series: Hair regeneration efficacy in testosterone induced male C57BL/6 mouse androgenetic alopecia model at 5 %, TOP administered once daily for 14 days and measured after 21 days with co-administration of 0.2% testosterone for 28 days by photographic analysis. It counts as functional, organism-based. Conditions: time 21.0 day.
Series [8] relates to Mus musculus. Nature of the series: Hair regeneration efficacy in testosterone induced male C57BL/6 mouse androgenetic alopecia model earlier pigmentation at 5 %, TOP administered once daily for 14 days and measured after 21 days with co-administration of 0.2% testosterone for 28 days by photographic analysis. It counts as functional, organism-based. Conditions: time 14.0 day.

The test system of series [9] is Mus musculus. Put plainly: In vivo induction of AR degradation in testosterone induced male C57BL/6 mouse androgenetic alopecia model assessed as decrease in AR protein level in skin at […] TOP administered once daily for 14 days with co-administration of 0.2% testosterone for 28 days by Western blot analysis. It counts as functional, organism-based. Conditions: time 14.0 day.

In series [10] the test system is Mus musculus. Nature of the series: Hair regeneration efficacy in testosterone induced male C57BL/6 mouse androgenetic alopecia model assessed as generation of thick hair with intact scales at 5 %, TOP administered once daily for 14 days with co-administration of 0.2% testosterone and measured after 28 days by SEM analysis. It counts as functional, organism-based. Conditions: time 28.0 day.

Series [11] relates to Mus musculus. Put plainly: Hair regeneration efficacy in testosterone induced male C57BL/6 mouse androgenetic alopecia model assessed as well formed stratum corneum in hair at 5 %, TOP administered once daily for 14 days with co-administration of 0.2% testosterone and measured after 28 days by SEM analysis. It is filed as functional, organism-based. Conditions: time 28.0 day.

Series [12] relates to Mus musculus. Nature of the series: Hair regeneration efficacy in testosterone induced male C57BL/6 mouse androgenetic alopecia model assessed as entry of hair follicles to anagen phase by measuring high density of enlarged hair bulbs in subcutaneous tissue at 5 %, TOP administered once daily for 14 days with co-administration of 0.2% testosterone for 28 days by H and E staining based analysis. It is filed as functional, organism-based. Conditions: time 14.0 day.

For series [13], the system named is Mus musculus. Put plainly: Hair regeneration efficacy in testosterone induced male C57BL/6 mouse androgenetic alopecia model assessed as increase in hair cycle score at 5 %, TOP administered once daily for 14 days with co-administration of 0.2% testosterone for 28 days. Conditions: time 14.0 day. It is filed as functional, organism-based.
Series [14] has as its system Mus musculus. Nature of the series: Hair regeneration efficacy in testosterone induced male C57BL/6 mouse androgenetic alopecia model assessed as increase in Ki67 expression in skin at 5 % TOP administered once daily for 14 days with co-administration of 0.2% testosterone for 28 days by DAPI staining based immunofluorescence analysis. It counts as functional, organism-based. Conditions: time 14.0 day.

Calls of active or inactive are those of the source. The calls are words filed in the database; no cut-off is given here. Bounds are passed on as bounds.

Usually DC50 stands for the concentration giving 50% degradation.

Chain of Protein cereblon/Androgen receptor (P10275 whole entry): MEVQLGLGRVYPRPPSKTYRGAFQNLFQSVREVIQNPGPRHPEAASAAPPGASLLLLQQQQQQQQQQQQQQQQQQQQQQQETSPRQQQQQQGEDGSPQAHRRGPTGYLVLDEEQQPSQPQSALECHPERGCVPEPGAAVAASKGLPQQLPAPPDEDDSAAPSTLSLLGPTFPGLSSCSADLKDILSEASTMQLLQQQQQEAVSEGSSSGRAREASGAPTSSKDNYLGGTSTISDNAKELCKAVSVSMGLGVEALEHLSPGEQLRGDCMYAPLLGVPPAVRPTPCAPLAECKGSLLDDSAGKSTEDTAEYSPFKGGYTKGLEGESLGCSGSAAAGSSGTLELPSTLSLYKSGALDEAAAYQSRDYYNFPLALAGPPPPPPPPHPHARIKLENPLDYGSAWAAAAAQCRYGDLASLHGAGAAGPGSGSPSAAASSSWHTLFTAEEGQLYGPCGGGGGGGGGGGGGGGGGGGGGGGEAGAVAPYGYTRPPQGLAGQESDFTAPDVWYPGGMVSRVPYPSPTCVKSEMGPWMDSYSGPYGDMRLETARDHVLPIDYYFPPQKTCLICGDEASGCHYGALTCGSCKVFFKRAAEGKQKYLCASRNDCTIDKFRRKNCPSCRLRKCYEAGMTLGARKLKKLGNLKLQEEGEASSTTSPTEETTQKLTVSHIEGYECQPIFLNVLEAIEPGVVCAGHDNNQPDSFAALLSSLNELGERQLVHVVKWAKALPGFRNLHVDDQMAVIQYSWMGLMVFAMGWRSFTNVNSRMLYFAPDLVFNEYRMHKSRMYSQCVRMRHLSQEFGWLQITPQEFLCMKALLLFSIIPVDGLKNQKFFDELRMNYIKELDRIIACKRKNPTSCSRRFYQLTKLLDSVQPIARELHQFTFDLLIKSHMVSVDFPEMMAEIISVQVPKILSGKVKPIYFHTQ
Chain of Protein cereblon/Androgen receptor (Q96SW2 whole entry): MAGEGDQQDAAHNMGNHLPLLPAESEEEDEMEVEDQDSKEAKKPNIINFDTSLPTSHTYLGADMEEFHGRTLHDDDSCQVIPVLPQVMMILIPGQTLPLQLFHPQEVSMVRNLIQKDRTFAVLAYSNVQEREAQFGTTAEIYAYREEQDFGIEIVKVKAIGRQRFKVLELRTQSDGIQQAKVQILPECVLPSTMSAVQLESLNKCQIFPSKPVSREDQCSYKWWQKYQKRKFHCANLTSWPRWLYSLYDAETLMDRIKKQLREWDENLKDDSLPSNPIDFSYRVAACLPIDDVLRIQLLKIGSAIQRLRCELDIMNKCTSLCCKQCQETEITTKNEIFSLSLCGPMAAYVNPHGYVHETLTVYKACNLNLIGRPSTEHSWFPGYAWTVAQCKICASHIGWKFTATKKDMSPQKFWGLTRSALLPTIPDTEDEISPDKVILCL

Take `O=C1CCC(NC(=O)c2ccc(N3CCN(C4CCN(c5ccc(F)cc5)CC4)CC3)cc2)C(=O)N1` (stereo not given): the Drug uptake in series [1] stood at 9.12%.
As to `N#Cc1ccc(O[C@H]2CC[C@H](NC(=O)c3ccc(N4CCN(C5CN(c6ccc7c(c6)C(=O)N(C6CCC(=O)NC6=O)C7=O)C5)CC4)cc3)CC2)cc1Cl` (stereo not given in full), the Drug uptake in series [1] came to 1.41%. For the same molecule, the 50% degradation concentration (DC50) in [2] was > 1000 nM.
Regarding `O=C1CCC(N2C(=O)c3cccc(NC4CCN(CC5CCN(c6ccc(C(F)(F)F)cc6)CC5)CC4)c3C2=O)C(=O)N1` (stereo not given), in [1], the Drug uptake is given as 4.34%.
Take `N#Cc1ccc(O[C@H]2CC[C@H](NC(=O)c3ccc(N4CCN(CC5CCN(c6ccc7c(c6)C(=O)N(C6CCC(=O)NC6=O)C7=O)C5)CC4)cc3)CC2)cc1Cl` (stereo not given in full): the Drug uptake in series [1] is on record as 0.74%. Further, the 50% degradation concentration (DC50) in series [2] was > 1000 nM.
Consider `Nc1cc(N2CCCCC2)nc(N)[n+]1[O-]` [MINOXIDIL], for which the result (in [3]; in the series on Mus musculus [9]) was inactive. Also, the outcome (in series [4]; in series [5]; in the series on Mus musculus [7]; with Mus musculus [8]; with Mus musculus [10]; with Mus musculus [11]) was Active. Moreover, the outcome in the series with Mus musculus [12], in the series with Mus musculus [13] and in the series on Mus musculus [14] was Active. Further, the Activity in [6] worked out at 952.22 pg/mL.
With `N#Cc1ccc(O[C@H]2CC[C@H](NC(=O)c3ccc(C4CCN(CC5CN(c6ccc(C(=O)NC7CCC(=O)NC7=O)cc6)C5)CC4)cc3)CC2)cc1Cl` (stereo not given in full), in [1], the Drug uptake is recorded as 1.23%. Further, in [2], the DC50 is 70.9 nM.
For `N#Cc1ccc(O[C@H]2CC[C@H](NC(=O)c3ccc(N4CCC(CN5CCN(c6ccc7c(c6)C(=O)N(C6CCC(=O)NC6=O)C7=O)CC5)CC4)cc3)CC2)cc1Cl` (stereo not given in full), in series [1], the Drug uptake is 0.62%. Further, in [2], the 50% degradation concentration (DC50) turned out to be 207 nM.
As for `O=C1CCC(N2C(=O)c3cccc(N4CCC(CN5CCN(c6ccc(C(F)(F)F)cc6)CC5)C4)c3C2=O)C(=O)N1` (stereo not given), the Drug uptake in series [1] stood at 0.96%.
On the same count and under the same terms, in the case of `O=C1CCC(N2C(=O)c3ccc(N4CCN(CC5CCN(c6ccc(C(F)(F)F)cc6)CC5)CC4)cc3C2=O)C(=O)N1` (stereo not given) it was 8.73%.
For `N#Cc1ccc(O[C@H]2CC[C@H](NC(=O)c3ccc(N4CCC(N5CCN(c6ccc(C(=O)NC7CCC(=O)NC7=O)cc6)CC5)CC4)cc3)CC2)cc1Cl` (stereo not given in full), the Drug uptake in series [1] turned out to be 1.31%. In addition, the 50% degradation concentration (DC50) in series [2] was found to be 104 nM.
With `N#Cc1ccc(O[C@H]2CC[C@H](NC(=O)c3ccc(N4CCN(CC5CCN(c6ccc7c(c6)C(=O)N(C6CCC(=O)NC6=O)C7=O)CC5)CC4)cc3)CC2)cc1Cl` (stereo not given in full), the Drug uptake in series [1] came out at 0.69%.
In the case of `N#Cc1ccc(O[C@H]2CC[C@H](NC(=O)c3ccc(N4CCC(CCN5CCN(c6ccc(C(=O)NC7CCC(=O)NC7=O)cc6)CC5)CC4)cc3)CC2)cc1Cl` (stereo not given in full), the Drug uptake in series [1] amounted to 1%. The half-maximal degradation concentration (DC50) in [2] was > 1000 nM.
Turning to `O=C1CCC(N2C(=O)c3ccc(N4CCC(CN5CCN(c6ccc(C(F)(F)F)cc6)CC5)C4)cc3C2=O)C(=O)N1` (stereo not given), the Drug uptake in [1] is 0.68%.
Same read-out and setting: the same measure for `O=C1CCC(N2Cc3c(OCC#CCN4CCN(CC#Cc5ccc(C(F)(F)F)cc5)CC4)cccc3C2=O)C(=O)N1` (stereo not given): 1.91%; for `O=C1CCC(NC(=O)c2ccc(N3CCN(CC4CCN(c5ccc(F)cc5)CC4)CC3)cc2)C(=O)N1` (stereo not given): 4.99%.
Still for that read-out and setting: the same measure for `O=C1CCC(N2Cc3cc(OCC#CCN4CCN(CC#Cc5ccc(C(F)(F)F)cc5)CC4)ccc3C2=O)C(=O)N1` (stereo not given): 5.41%; for `O=C1CCC(NC(=O)c2ccc(N3CCN(CCCCc4ccc(F)cc4)CC3)cc2)C(=O)N1` (stereo not given): 6.93%.
Same read-out and setting: in the case of `O=C1CCC(N2C(=O)c3cc(F)c(N4CC(CN5CCC(c6ccc(C(F)(F)F)cc6)CC5)C4)cc3C2=O)C(=O)N1` (stereo not given) it was 2.22%.
For the molecule `O=C1CCC(N2C(=O)c3ccc(N4CCC(CN5CCC(c6ccc(C(F)(F)F)cc6)CC5)C4)cc3C2=O)C(=O)N1` (stereo not given), the Drug uptake in series [1] stood at 1.94%.
In the case of `N#Cc1ccc(O[C@H]2CC[C@H](NC(=O)c3ccc(CCCCN4CCN(c5ccc(C(=O)NC6CCC(=O)NC6=O)cc5)CC4)cc3)CC2)cc1Cl` (stereo not given in full), the Drug uptake in series [1] is 1.49%. Also, in series [2], the DC50 was > 1000 nM.
For `N#Cc1ccc(O[C@H]2CC[C@H](NC(=O)c3ccc(N4CCN(CC5CCN(c6ccc(C(=O)NC7CCC(=O)NC7=O)cc6)C5)CC4)cc3)CC2)cc1Cl` (stereo not given in full), in that order: 1.86% and > 1000 nM.
For `N#Cc1ccc(O[C@H]2CC[C@H](NC(=O)c3ccc(C4CCN(CC5CN(c6ccc7c(c6)C(=O)N(C6CCC(=O)NC6=O)C7=O)C5)CC4)cc3)CC2)cc1Cl` (stereo not given in full), the Drug uptake in series [1] is on record as 0.6%. For the same molecule, the DC50 in series [2] is > 1000 nM.
Turning to `N#Cc1ccc(O[C@H]2CC[C@H](NC(=O)c3ccc(N4CCC(CN5CCN(c6ccc(C(=O)NC7CCC(=O)NC7=O)cc6)CC5)CC4)cc3)CC2)cc1Cl` (stereo not given in full), the Drug uptake in series [1] stood at 0.81%. The DC50 in series [2] is > 1000 nM.
Consider `O=C1CCC(NC(=O)c2ccc(N3CCN(CCC4CCN(c5ccc(F)cc5)CC4)CC3)cc2)C(=O)N1` (stereo not given), for which, in [1], the Drug uptake was determined as 3.92%.
For `N#Cc1ccc(O[C@H]2CC[C@H](NC(=O)c3ccc(C4CCN(CC5CCCN(c6ccc7c(c6)C(=O)N(C6CCC(=O)NC6=O)C7=O)C5)CC4)cc3)CC2)cc1Cl` (stereo not given in full), the Drug uptake in series [1] amounted to 0.58%. For the same molecule, the DC50 in series [2] is > 1000 nM.
Consider `O=C1CCC(N2Cc3cc(C#CCN4CCN(c5ccc(C(F)(F)F)cc5)CC4)ccc3C2=O)C(=O)N1` (stereo not given), for which, in series [1], the Drug uptake came out at 2.48%.
In the case of `CNC(=O)c1ccc(N2C(=S)N(c3ccc(C#N)c(C(F)(F)F)c3)C(=O)C2(C)C)cc1F` [ENZALUTAMIDE], in series [3], the outcome was inactive. Besides, the result in series [4] and in series [5] was Active. Moreover, in series [6], the Activity came to 1195 pg/mL.
On to `O=C1CCC(N2C(=O)c3ccc(N4CCCC(CN5CCC(c6ccc(C(F)(F)F)cc6)CC5)C4)cc3C2=O)C(=O)N1` (stereo not given), for which, in [1], the Drug uptake is on record as 5.75%.
For `O=C1CCC(N2C(=O)c3ccc(N4CC(N5CCN(c6ccc(C(F)(F)F)cc6)CC5)C4)cc3C2=O)C(=O)N1` (stereo not given), the Drug uptake in series [1] was 5.84%.
Turning to `O=C1CCC(N2C(=O)c3ccc(N4CC(CN5CCC(c6ccc(C(F)(F)F)cc6)CC5)C4)cc3C2=O)C(=O)N1` (stereo not given), the Drug uptake in series [1] was found to be 8.45%.
